These results are taken from ChEMBL document CHEMBL1201862, “PubChem BioAssay data set” (2004).

In assay [1] the target is T1, Endoribonuclease toxin MazF (Escherichia coli K-12, UniProt P0AE70).
T1 sequence (P0AE70 whole entry): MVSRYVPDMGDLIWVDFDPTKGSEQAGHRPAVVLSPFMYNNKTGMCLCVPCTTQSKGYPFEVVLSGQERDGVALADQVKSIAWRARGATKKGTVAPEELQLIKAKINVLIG
The experiment in a line: MazEF toxin-antitoxin RNase activation – biochemical, fluorescence, single-stranded RNA substrate, SAR follow-up (AID 588603). The class given is functional.

In assay [2] the target is T2, Neuropeptide Y receptor type 2 (Homo sapiens, UniProt P49146).
T2 sequence (P49146 whole entry): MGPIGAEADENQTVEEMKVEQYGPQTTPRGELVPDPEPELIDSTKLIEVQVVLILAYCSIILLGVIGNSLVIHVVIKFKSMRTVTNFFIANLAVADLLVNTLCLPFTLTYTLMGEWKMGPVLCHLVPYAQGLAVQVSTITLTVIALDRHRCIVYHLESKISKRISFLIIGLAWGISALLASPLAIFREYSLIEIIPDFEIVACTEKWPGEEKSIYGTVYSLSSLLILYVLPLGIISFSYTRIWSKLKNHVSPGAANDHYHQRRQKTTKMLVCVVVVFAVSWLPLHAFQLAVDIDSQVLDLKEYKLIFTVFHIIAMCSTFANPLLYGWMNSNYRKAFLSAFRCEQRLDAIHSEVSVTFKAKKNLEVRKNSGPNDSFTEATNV
As to the kind of experiment: Fluorescence-based counterscreen for agonists of NPY-Y1: cell-based high-throughput dose response assay for agonists of NPY-Y2. The class given is functional. A general note: The purpose of a counterscreen is to sort out artefacts and off-target activity.

Assay [3] deals with T1, Endoribonuclease toxin MazF. As to the kind of experiment: activation of MazEF endoribonuclease cleavage – biochemical, fluorescence, single-stranded RNA substrate, uHTS hits, dose response (AID 588481). In kind it is functional.
Assay [4] deals with HEK293. The experiment in a line: Fluorescence-based counterscreen for potentiators or agonists of NPY-Y1: cell-based high-throughput dose response assay for inhibitors of cyclic nucleotide gated ion channel (CNGC) activity. In this assay, the parental HEK293 cell line transfected with a cyclic-nucleotide gated ion channel (CNGC)-based cAMP sensor is used to measure inhibition of isoproterenol-induced CNGC …. The class given is functional. The note with it: Homo sapiens.

For assay [5], the target named is T3, Neuropeptide Y receptor type 1 (Homo sapiens, UniProt P25929).
T3 sequence (P25929 whole entry): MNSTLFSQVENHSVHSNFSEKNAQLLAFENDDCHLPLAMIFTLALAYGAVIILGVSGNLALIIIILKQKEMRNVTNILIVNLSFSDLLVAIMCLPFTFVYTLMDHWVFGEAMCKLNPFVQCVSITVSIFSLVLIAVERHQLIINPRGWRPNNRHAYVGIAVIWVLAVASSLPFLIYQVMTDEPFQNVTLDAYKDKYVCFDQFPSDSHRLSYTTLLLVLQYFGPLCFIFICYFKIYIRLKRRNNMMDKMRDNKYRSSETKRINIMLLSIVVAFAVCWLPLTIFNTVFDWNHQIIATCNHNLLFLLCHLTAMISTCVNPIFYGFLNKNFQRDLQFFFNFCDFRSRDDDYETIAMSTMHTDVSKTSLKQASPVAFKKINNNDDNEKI
As to the kind of experiment: Fluorescence-based dose response cell-based high-throughput screening assay for agonists of NPY-Y1. [Related pubchem assays: 1697 (Screening assay (NPY-Y1 agonists).), 1359 (Screening assay (NPY-Y2 potentiators or agonists).), 1304 (Screening assay (NPY-Y1 potentiators or agonists).), 1704 (Screening assay (CNGC inhibitors).), 1791 (Summary AID.)]. The class given is functional.

For assay [6], the target named is T1, Endoribonuclease toxin MazF. The experiment in a line: SAR analysis of small molecule activators of the MazEF TA System via a fluorescence-based single-stranded RNase assay counterscreen. [Related pubchem assays (depositor defined):AID504720, AID504743]. The class given is functional.
Assay [7] deals with MEF. The experiment in a line: SAR analysis of small molecule cytotoxicity of MazEF TA System activators in embryonic fibroblast (MEF) cells. [Related pubchem assays (depositor defined):AID504720, AID504743]. The note with it: Mus musculus. The class given is functional.
For assay [8], the target named is T1, Endoribonuclease toxin MazF. The experiment in a line: substrate-only fluorescence increase artefacts – biochemical, single-stranded RNase substrate, counter-screen for MazEF activator project, dose response (AID 588502). The class given is functional.
Assay [9] concerns the target T4, Histone-lysine N-methyltransferase NSD2 (Homo sapiens, UniProt O96028).
T4 sequence (O96028 whole entry): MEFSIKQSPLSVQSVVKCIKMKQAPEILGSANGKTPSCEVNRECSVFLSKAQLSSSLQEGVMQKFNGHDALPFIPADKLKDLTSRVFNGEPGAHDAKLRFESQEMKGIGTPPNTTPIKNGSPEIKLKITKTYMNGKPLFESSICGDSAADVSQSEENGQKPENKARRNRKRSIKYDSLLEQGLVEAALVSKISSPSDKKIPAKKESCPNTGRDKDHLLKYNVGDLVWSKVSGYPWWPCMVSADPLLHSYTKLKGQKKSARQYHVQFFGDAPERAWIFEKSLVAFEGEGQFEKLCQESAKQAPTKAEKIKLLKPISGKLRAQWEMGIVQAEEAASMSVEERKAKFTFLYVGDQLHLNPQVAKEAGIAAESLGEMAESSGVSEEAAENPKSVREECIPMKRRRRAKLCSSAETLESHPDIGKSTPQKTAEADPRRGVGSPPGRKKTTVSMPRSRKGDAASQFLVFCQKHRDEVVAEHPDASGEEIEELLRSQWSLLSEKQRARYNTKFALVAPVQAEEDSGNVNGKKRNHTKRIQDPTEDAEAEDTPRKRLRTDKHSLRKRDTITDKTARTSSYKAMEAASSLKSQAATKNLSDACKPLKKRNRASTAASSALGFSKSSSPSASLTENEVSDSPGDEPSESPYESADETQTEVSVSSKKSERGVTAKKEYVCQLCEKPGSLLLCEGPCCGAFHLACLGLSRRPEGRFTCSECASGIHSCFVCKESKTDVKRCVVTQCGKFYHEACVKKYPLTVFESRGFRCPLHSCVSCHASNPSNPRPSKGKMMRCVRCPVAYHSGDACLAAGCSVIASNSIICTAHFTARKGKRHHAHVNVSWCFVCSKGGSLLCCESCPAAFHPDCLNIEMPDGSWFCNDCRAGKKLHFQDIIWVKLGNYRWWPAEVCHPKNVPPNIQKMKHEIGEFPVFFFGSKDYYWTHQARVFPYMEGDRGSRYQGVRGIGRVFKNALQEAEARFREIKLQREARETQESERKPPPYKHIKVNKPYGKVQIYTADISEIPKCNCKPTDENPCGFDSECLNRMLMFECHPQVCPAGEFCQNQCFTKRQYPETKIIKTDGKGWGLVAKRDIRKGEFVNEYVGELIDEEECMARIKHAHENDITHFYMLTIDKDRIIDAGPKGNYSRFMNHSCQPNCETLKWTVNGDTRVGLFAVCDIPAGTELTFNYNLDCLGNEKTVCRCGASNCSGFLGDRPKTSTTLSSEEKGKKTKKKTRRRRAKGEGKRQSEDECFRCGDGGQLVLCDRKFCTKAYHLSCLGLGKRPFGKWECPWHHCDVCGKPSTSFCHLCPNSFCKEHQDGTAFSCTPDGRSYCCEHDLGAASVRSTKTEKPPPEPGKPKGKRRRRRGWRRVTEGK
The class given is biochemical.

Assay [10] addresses DNA topoisomerase (Yersinia pestis, UniProt A0A2S9PM60). The experiment in a line: Yersinia topoisomerase I cleavage product accumulation – biochemical, cherry-pick, dose response (AID 588525).
The target of assay [11] is T5, Rac GTPase-activating protein 1 (Homo sapiens, UniProt Q9H0H5).
T5 sequence (Q9H0H5 whole entry): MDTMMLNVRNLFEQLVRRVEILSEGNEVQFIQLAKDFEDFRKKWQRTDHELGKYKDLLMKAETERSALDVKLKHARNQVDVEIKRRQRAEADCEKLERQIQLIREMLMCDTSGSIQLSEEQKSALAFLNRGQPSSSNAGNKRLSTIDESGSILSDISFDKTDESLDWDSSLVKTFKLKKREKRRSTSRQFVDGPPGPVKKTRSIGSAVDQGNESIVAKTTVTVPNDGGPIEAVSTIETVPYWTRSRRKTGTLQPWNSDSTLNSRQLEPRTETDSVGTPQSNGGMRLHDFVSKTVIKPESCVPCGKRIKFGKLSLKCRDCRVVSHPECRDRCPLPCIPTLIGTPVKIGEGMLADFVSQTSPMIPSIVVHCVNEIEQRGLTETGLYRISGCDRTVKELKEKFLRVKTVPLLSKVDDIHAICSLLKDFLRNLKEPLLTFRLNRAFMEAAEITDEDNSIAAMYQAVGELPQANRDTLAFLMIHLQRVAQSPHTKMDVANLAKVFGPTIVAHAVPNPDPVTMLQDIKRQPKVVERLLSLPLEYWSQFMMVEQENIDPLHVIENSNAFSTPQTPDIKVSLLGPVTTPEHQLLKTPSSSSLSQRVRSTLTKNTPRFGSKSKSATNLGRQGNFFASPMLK
The experiment in a line: blockers of MgcRacGAP-driven Rac1 GTP hydrolysis – biochemical, ADP Hunter fluorescence, primary and confirmatory, confirmation (AID 624330). In kind it is functional.

For assay [12], the target named is Nonstructural protein 1 (Influenza A virus, UniProt Q194T2). In kind it is functional, Influenza A virus (A/California/07/2009(H1N1)).
Chain of Nonstructural protein 1 (Q194T2 whole entry): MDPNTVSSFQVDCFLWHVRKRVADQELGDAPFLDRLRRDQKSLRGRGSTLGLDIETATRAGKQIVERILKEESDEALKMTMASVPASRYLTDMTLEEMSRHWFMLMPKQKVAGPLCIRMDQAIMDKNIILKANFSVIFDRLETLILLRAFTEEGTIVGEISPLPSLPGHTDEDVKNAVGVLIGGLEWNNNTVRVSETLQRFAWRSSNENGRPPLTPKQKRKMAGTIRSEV
A short description of assay [13]: viability loss in HeLa cells – cytotoxicity control for MgcRacGAP inhibitor project, dose response (AID 624300). In kind it is functional.

The structures appear in SMILES notation. Active and inactive are the calls of the source. Where only a bound is given, the exact number is not on record here.

Chain of DNA topoisomerase (A0A2S9PM60 whole entry): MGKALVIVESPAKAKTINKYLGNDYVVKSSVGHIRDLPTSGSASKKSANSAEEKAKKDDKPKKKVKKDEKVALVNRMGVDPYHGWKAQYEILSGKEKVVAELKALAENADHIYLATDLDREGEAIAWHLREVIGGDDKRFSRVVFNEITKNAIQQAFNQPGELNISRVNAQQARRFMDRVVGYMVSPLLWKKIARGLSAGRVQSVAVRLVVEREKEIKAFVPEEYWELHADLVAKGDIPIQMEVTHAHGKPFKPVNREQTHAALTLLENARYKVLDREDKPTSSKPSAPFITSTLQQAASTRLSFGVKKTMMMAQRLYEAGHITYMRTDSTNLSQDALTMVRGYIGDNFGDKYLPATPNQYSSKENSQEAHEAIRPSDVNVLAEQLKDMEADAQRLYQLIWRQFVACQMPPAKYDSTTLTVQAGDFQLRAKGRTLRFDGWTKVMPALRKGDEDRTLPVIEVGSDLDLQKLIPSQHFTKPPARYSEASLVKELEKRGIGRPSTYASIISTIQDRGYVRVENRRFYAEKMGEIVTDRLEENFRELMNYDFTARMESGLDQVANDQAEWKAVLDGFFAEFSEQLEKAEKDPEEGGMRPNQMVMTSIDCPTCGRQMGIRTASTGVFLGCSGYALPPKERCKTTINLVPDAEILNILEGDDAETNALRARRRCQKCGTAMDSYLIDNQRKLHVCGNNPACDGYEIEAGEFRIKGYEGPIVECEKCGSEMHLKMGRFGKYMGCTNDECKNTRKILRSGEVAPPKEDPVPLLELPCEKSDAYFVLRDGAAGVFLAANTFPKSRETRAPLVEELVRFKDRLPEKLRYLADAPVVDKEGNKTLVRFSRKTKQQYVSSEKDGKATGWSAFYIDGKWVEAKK

What is called EC50 is the concentration giving half of the maximal effect. By IC50 is commonly meant the concentration needed to halve the response being measured. Broadly, the CC50 is the concentration at which the toxic effect on the cells reaches its halfway point. Turning to `O=C(Nc1ccc(Cl)cc1Cl)NC1CCN(S(=O)(=O)c2ccc(F)cc2)CC1`, the EC50 in [1] was 26.9 µM (inactive); in [2], 6.58 µM (active); in assay [3] it was 7.09 µM (active); in assay [5] it was 7.41 µM (active); in [6] it was > 99 µM (inactive); in assay [8], > 99 µM (inactive). In [4], the IC50 was 4.36 µM (active). Besides, the CC50 in [7] was 11.8 µM (active).

In general, AC50 refers to the concentration at which the activity in the assay is half-maximal. Regarding `COc1cccc2c1C(=N)c1c(O)c3c(c(O)c1C2=O)C[C@@](O)(C(C)=O)C[C@@H]3O[C@H]1C[C@H](N)[C@H](O)[C@H](C)O1`, the AC50 is 11.5 µM (active) in assay [9] and 4.44 µM (active) in [10]. The IC50 in assay [11] was 50.8 µM (active); in [12] it was 11.2 µM (active). For the same compound, the CC50 in assay [13] was 35.4 µM (active).
